From US9234000B2, “Benzylamine derivatives as inhibitors of plasma kallikrein” (KalVista Pharmaceuticals Limited, priority 2011, dated 2016)
In brackets after ≈: the same amount, converted by molar mass. Like-named read-outs stand apart in the source and are kept apart here.

Columns and labels:
Human plasma kallikrein = Human plasma kallikrein (Homo sapiens (Human), UniProt P03952); test: Determination of the IC50 for plasma kallikrein; format: biochemical; settings: 37° C., read-out: IC50 (human PKal)
How it was run: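 Human plasma kallikrein incubated at 37° C with fluorogenic substrate H-DPro-Phe-Arg-AFC and varying compound concentrations. Initial reaction rate followed by absorbance change at 410 nm to give residual activity and IC50.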

Human KLK1 = Human KLK1 (Homo sapiens (Human), UniProt P06870); test: Determination of the IC50 for KLK1; format: biochemical; settings: Human KLK1, 37° C., substrate H-DVal-Leu-Arg-AFC
How it was run: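 IC50 values reflect residual human KLK1 activity, read as initial rate from optical absorbance change at 410 nm. Incubations ran at 37° C with H-DVal-Leu-Arg-AFC as substrate across a compound concentration series.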

Factor XIIa = Factor XIIa (Homo sapiens (Human), UniProt P00748); test: Determination of enzyme selectivity: Factor XIIa; format: biochemical; settings: fluorogenic substrate at Km concentration
Method: Determination of Enzyme Selectivity
Human serine protease enzymes plasmin, thrombin, trypsin, Factor Xa and Factor XIIa were assayed for enzymatic activity using an appropriate fluorogenic substrate. Protease activity was measured by monitoring the accumulation of liberated fluorescence from the substrate over 5 minutes. The linear rate of fluorescence increase per minute was expressed as percentage (%) activity. The Km for the cleavage of each substrate was determined by standard transformation of the Michaelis-Menten equation.

physchem = settings: pH 7
Method: Determination of the Kinetic Solubility in Phosphate Buffer
After shaking for approximately 30 seconds the reduction in light transmission of these samples, at 650 nm, was measured (Molecular Devices Spectromax UV/visible spectrophotometer). A second measurement was taken at approximately 30 seconds later.

[1] = Determination of thermodynamic solubility in phosphate buffer; format: physicochemical; settings: pH 7.4, aqueous buffer, thermodynamic from solid, ammonium phosphate buffer pH7.4, 290 mOsm, 37° C., nominal 1 mg/mL, read-out: Solubility in PO4 buffer
How it was run: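 Compound at nominal 1 mg/mL in ammonium phosphate buffer (pH7.4, 290 mOsm), shaken 1 h at 37° C., then centrifuged 15,000 g for 10 minutes at 37° C. Supernatant concentration measured by LC-MS/MS against a calibration line from a DMSO stock.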

Factor XIIa, sequence (P00748 373-615): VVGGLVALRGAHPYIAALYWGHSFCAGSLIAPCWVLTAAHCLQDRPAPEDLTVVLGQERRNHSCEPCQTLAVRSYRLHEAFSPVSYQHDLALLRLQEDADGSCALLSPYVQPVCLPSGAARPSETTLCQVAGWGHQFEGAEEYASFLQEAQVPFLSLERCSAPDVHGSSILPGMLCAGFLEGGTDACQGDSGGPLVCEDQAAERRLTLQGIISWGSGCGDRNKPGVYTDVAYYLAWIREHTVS
Human KLK1, sequence (P06870 25-262): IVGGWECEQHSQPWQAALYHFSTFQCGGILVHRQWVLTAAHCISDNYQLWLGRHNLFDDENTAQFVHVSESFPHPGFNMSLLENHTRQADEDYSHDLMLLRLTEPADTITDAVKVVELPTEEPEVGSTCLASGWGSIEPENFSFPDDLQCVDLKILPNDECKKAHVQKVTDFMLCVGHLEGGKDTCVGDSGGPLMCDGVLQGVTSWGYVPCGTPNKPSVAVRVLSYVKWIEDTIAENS
Human plasma kallikrein, sequence (P03952 391-638): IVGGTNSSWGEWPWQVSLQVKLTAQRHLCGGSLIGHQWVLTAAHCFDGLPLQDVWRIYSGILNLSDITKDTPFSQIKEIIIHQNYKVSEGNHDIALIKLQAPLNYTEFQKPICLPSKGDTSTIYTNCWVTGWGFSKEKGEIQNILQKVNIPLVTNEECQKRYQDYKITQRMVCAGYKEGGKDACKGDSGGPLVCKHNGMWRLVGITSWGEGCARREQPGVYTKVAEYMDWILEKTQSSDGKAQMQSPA
Human plasma kallikrein, sequence (P03952 20-390 partner): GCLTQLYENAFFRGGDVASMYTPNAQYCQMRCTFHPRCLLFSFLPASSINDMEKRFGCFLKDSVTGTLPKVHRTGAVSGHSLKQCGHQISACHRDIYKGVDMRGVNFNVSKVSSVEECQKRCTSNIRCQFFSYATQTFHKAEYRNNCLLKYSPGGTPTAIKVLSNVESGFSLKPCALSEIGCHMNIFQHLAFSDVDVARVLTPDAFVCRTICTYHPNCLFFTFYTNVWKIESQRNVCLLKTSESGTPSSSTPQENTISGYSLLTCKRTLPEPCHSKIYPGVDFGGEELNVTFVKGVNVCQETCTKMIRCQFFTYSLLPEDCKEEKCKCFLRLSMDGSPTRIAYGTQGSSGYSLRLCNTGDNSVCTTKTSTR

SMILES	IC50 (Human plasma kallikrein; substrate H-DPro-Phe-Arg-AFC)	IC50 (Human KLK1; Table 13)	IC50 (Factor XIIa)	solubility in PO4 buffer (physchem)	solubility at 1 h [1]	IC50 (Human plasma kallikrein; fluorogenic substrate H-DPro-Phe-Arg-AFC)	IC50 (Human KLK1; Table 12)
CCOc1ccc(C[C@@H](NC(=O)c2sccc2Cl)C(=O)N(C)[C@@H](Cc2ccccc2)C(=O)NCc2ccc(CN)cc2)cc1 [Example 196, 3-Chloro-thiophene-2-carboxylic acid [(R)-1-{[(S)-1-(4-aminomethyl-benzylcarbamoyl)-2-phenyl-ethyl]-methyl-carbamoyl}-2-(4-ethoxy-phenyl)-ethyl]-amide]	0.032 µM	9.9 µM	> 10 µM				
CCOc1ccc(C[C@@H](NC(=O)c2ccccc2)C(=O)N[C@@H](Cc2cccnc2)C(=O)NCc2ccc(CN)c(C)c2)cc1 [Example 192, N-[(R)-1-[(S)-1-(4-Aminomethyl-3-methyl-benzylcarbamoyl)-2-pyridin-3-yl-ethylcarbamoyl]-2-(4-ethoxy-phenyl)-ethyl]-benzamide]	0.012 µM	> 10 µM	> 10 µM				
CCOc1ccc(C[C@@H](NC(=O)Cc2ccccc2)C(=O)N[C@@H](Cc2ccccc2)C(=O)NCc2ccc(CN)cc2)cc1 [Example 85, (S)-N-(4-Aminomethyl-benzyl)-2-[(R)-3-(4-ethoxy-phenyl)-2-phenylacetylamino-propionylamino]-3-phenyl-propionamide]	0.485 µM	2.9 µM	> 10 µM				
CCOc1ccc(C[C@@H](NC(=O)c2cccc(C)c2)C(=O)N[C@@H](Cc2cccnc2)C(=O)NCc2ccc(CN)cc2)cc1 [Example 189, N-[(R)-1-[(S)-1-(4-Aminomethyl-benzylcarbamoyl)-2-pyridin-3-yl-ethylcarbamoyl]-2-(4-ethoxy-phenyl)-ethyl]-3-methyl-benzamide]	0.023 µM	> 10 µM	> 10 µM				
CCOc1ccc(C[C@@H](NC(=O)c2[nH]ccc2C)C(=O)N[C@@H](Cc2csc3ccccc23)C(=O)NCc2ccc(CN)cc2)cc1 [Example 186, 3-Methyl-1H-pyrrole-2-carboxylic acid [(R)-1-[(S)-1-(4-aminomethyl-benzylcarbamoyl)-2-benzo[b]thiophen-3-yl-ethylcarbamoyl]-2-(4-ethoxy-phenyl)-ethyl]-amide]	0.014 µM	3.8 µM	> 10 µM				
CCOc1ccc(C[C@@H](NC(=O)C23CC4CC(CC(C4)C2)C3)C(=O)N[C@@H](Cc2ccccc2)C(=O)NCc2ccc(CN)cc2)cc1 [Example 91, Adamantane-1-carboxylic acid [(R)-1-[(S)-1-(4-aminomethyl-benzylcarbamoyl)-2-phenyl-ethylcarbamoyl]-2-(4-ethoxy-phenyl)-ethyl]-amide]	2.08 µM	> 10 µM	> 10 µM				
NCc1ccc(CNC(=O)[C@H](Cc2ccccc2)NC(=O)C(Cc2ccc(OCC(F)(F)F)cc2)NC(=O)c2ccccc2)cc1 (stereo partly drawn) [Example 201, N-{(R,S)-1-[(S)-1-(4-Aminomethyl-benzylcarbamoyl)-2-phenyl-ethylcarbamoyl]-2-[4-(2,2,2-trifluoro-ethoxy)-phenyl]-ethyl}-benzamide]	0.012 µM	> 10 µM	> 10 µM				
CCOc1ccc(C[C@@H](NC(=O)c2ccccc2)C(=O)N(C)[C@@H](Cc2ccccc2)C(=O)NCc2ccc(CN)cc2)cc1 [Example 38, N-[(R)-1-{[(S)-1-(4-Aminomethyl-benzylcarbamoyl)-2-phenyl-ethyl]-methyl-carbamoyl}-2-(4-ethoxy-phenyl)-ethyl]-benzamide]				> 235 µM	14.6 µg/mL (≈ 24.5 µM)	0.047 µM	> 10 µM
CCOc1ccc(C[C@@H](NC(=O)c2sccc2Cl)C(=O)N[C@H](C(=O)NCc2ccc(CN)cc2)[C@H](O)c2ccccc2)cc1 [Example 198, 3-Chloro-thiophene-2-carboxylic acid [(R)-1-[(1S,2R)-1-(4-aminomethyl-benzylcarbamoyl)-2-hydroxy-2-phenyl-ethylcarbamoyl]-2-(4-ethoxy-phenyl)-ethyl]-amide]	0.007 µM	9.1 µM	> 10 µM				
CCOc1ccc(C[C@@H](NC(=O)c2cc(Cl)cc(Cl)c2)C(=O)N[C@@H](Cc2ccccc2)C(=O)NCc2ccc(CN)cc2)cc1 [Example 94, N-[(R)-1-[(S)-1-(4-Aminomethyl-benzylcarbamoyl)-2-phenyl-ethylcarbamoy]-2-(4-ethoxy-phenyl)-ethyl]-3,5-dichloro-benzamide]	1.08 µM	> 10 µM	> 10 µM				

More lines, now with the values ahead:

IC50 (Human plasma kallikrein; substrate H-DPro-Phe-Arg-AFC)	IC50 (Human KLK1; Table 13)	IC50 (Factor XIIa)	solubility in PO4 buffer (physchem)	solubility at 1 h [1]	IC50 (Human plasma kallikrein; fluorogenic substrate H-DPro-Phe-Arg-AFC)	IC50 (Human KLK1; Table 12)	SMILES
0.01 µM	> 10 µM	> 10 µM					CCOc1ccc(C[C@@H](NC(=O)c2sccc2Cl)C(=O)N[C@@H](Cc2cscn2)C(=O)NCc2ccc(CN)cc2)cc1 [Example 184, 3-Chloro-thiophene-2-carboxylic acid [(R)-1-[(S)-1-(4-aminomethyl-benzylcarbamoyl)-2-thiazol-4-yl-ethylcarbamoyl]-2-(4-ethoxy-phenyl)-ethyl]-amide]
0.025 µM	> 10 µM	> 10 µM					CCOc1ccc(C[C@@H](NC(=O)c2sccc2NC(C)=O)C(=O)N[C@@H](Cc2ccsc2)C(=O)NCc2ccc(CN)cc2)cc1 [Example 193, 3-Acetylamino-thiophene-2-carboxylic acid [(R)-1-[(S)-1-(4-aminomethyl-benzylcarbamoyl)-2-thiophen-3-yl-ethylcarbamoyl]-2-(4-ethoxy-phenyl)-ethyl]-amide]
0.049 µM	> 10 µM	> 10 µM					CCOc1ccc(C[C@@H](NC(=O)c2ccc(C)cc2)C(=O)N[C@@H](Cc2cscn2)C(=O)NCc2ccc(CN)cc2)cc1 [Example 185, N-[(R)-1-[(S)-1-(4-Aminomethyl-benzylcarbamoyl)-2-thiazol-4-yl-ethylcarbamoyl]-2-(4-ethoxy-phenyl)-ethyl]-4-methyl-benzamide]
0.014 µM	> 10 µM	> 10 µM					CCOc1ccc(C[C@@H](NC(=O)c2sccc2NC(C)=O)C(=O)N[C@@H](Cc2csc3ccccc23)C(=O)NCc2ccc(CN)cc2)cc1 [Example 195, 3-Acetylamino-thiophene-2-carboxylic acid [(R)-1-[(S)-1-(4-aminomethyl-benzylcarbamoyl)-2-benzo[b]thiophen-3-yl-ethylcarbamoyl]-2-(4-ethoxy-phenyl)-ethyl]-amide]
0.036 µM	> 10 µM	> 10 µM					CCOc1ccc(C[C@@H](NC(=O)c2sccc2NC(C)=O)C(=O)N[C@@H](Cc2csc3ccccc23)C(=O)NCc2ccc(CN)cc2)cc1 [Example 188, 3-Acetylamino-thiophene-2-carboxylic acid [(R)-1-[(S)-1-(4-aminomethyl-benzylcarbamoyl)-2-benzo[b]thiophen-3-yl-ethylcarbamoyl]-2-(4-ethoxy-phenyl)-ethyl]-amide]
0.013 µM	7.1 µM	> 10 µM					CCOc1ccc(C[C@@H](NC(=O)c2sccc2N)C(=O)N[C@@H](Cc2csc3ccccc23)C(=O)NCc2ccc(CN)cc2)cc1 [Example 194, 3-Amino-thiophene-2-carboxylic acid [(R)-1-[(S)-1-(4-aminomethyl-benzylcarbamoyl)-2-benzo[b]thiophen-3-yl-ethylcarbamoyl]-2-(4-ethoxy-phenyl)-ethyl]-amide]
0.016 µM	> 10 µM	> 10 µM					CCOc1ccc(C[C@@H](NC(=O)c2sccc2N)C(=O)N[C@@H](Cc2cscn2)C(=O)NCc2ccc(CN)cc2)cc1 [Example 183, 3-Amino-thiophene-2-carboxylic acid [(R)-1-[(S)-1-(4-aminomethyl-benzylcarbamoyl)-2-thiazol-4-yl-ethylcarbamoyl]-2-(4-ethoxy-phenyl)-ethyl]-amide]
